Data as given in PMC3466269, “A Comprehensive Strategy to Discover Inhibitors of the Translesion Synthesis DNA Polymerase κ” (PLoS ONE, 2012).

Molecular target: T1, Human pol κ (residues 19–526) (Homo sapiens, UniProt Q9UBT6)
T1 construct: Human pol κ (residues 19–526) was purified as previously reported; made in house
T1 sequence (Q9UBT6 19-526): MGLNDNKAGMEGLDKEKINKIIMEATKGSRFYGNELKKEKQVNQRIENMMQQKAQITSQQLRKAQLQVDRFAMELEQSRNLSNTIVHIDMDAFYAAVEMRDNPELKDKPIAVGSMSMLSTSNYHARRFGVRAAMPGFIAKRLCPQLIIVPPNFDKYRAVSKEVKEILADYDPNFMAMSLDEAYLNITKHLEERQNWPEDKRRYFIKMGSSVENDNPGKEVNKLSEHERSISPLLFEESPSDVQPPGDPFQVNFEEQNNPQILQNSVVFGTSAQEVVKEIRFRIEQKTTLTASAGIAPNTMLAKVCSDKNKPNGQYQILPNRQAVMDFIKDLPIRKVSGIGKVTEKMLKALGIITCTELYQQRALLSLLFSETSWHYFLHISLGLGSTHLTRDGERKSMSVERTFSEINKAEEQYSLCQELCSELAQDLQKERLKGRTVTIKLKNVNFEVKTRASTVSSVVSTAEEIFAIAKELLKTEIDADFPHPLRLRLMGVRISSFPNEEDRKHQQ
Experiment: qHTS fluorescence-based DNA strand displacement assay
Assay type: biochemical
Details: fluorescence strand displacement, 10 nM pol κ, 50 nM substrate, 100 µM dTTP; read-out: qHTS: IC50
Description: The substrate used in qHTS was made by the annealing of unlabeled oligodeoxynucleotide primer (5′-TCACCCTCGTACGACTC-3′) and TAMRA-labeled reporter strand (5′-TTTTTTTTTTGC-6-TAMRA-3′) to oligodeoxynucleotide template labeled with BHQ-2 (5′-BHQ-2-[…]-3′) as originally described by Dorjsuren et al.. The annealing mixture of unlabeled primer, TAMRA-labeled reporter, and BHQ-2-labeled template in buffer containing 50 mM Tris-HCl, pH 8.0, 100 mM NaCl, and 5 mM MgCl2 was heated at 95°C for 5 min and allowed to cool gradually to room temperature. The substrate was then stored at −20°C as 50 µM stock.
qHTS was performed in 50 mM Tris-HCI, pH 8.0, 40 mM NaCl, 1 mM MgCl2, 0.01% Tween-20, 2 mM DTT, and 100 µM dTTP. 3 µL of reagents (buffer as negative control and pol κ in the remaining plate at 10 nM final concentration) were dispensed by Flying Reagent Dispenser™ (FRD) (Beckman Coulter, Inc., Fullerton, CA) into a 1,536-well plate. Compounds were delivered as 23 nL in DMSO solution via pintool transfer; vehicle-only control consisted of 23 nL DMSO. The plate was incubated for 15 min at room temperature, and then 1 µL of substrate (50 nM final concentration) was added to initiate the reaction. The plate was immediately transferred into ViewLux reader for kinetic fluorescence data collection.
To lay the foundation for the methodologies to discover and characterize inhibitors of pol κ, we used a fluorescent reporter strand displacement assay (Figure 1 and [27]). The library of bioactive small molecules was tested as seven-point dilution series, with the final concentrations ranging from 2.9 nM to 57 µM.

IC50: 32 µM
SMILES: CCOc1nc2cccc(C(=O)OC(C)OC(=O)OC3CCCCC3)c2n1Cc1ccc(-c2ccccc2-c2nnn[nH]2)cc1 (stereo not shown) [candesartan cilexetil, Candesartan cilexetil]
